# Laboratory results as given in patent US20210348119A1, “COMPOSITIONS AND METHODS FOR CELL CULTURE” (The United States of America as Represented By The …, priority 2018, published 2021).
# “And” between values parts separate entries of the source, which are not always exact repeats. Equal entries are not always repeated. Where two headings read alike, the source gives them in different places.
# Key:
# H9 cells [1] = assay: qHTS for survival of dissociated H9 cells (CellTiter-Glo, 24 hours after seeding); format: cell-based, human; conditions: for AC50: CellTiter-Glo 24 hours after seeding, read-out: AC50 (concentration at 50% efficacy)
# Source text: FIG. 2 schematically illustrates qHTS procedure.
# All the screed compounds were received pre-plated at the pre-determined concentrations. […] Curve classification is explained in Huang et al. “Chemical genomics profiling of environmental chemical modulation of human nuclear receptors” Environ. Health. Perspect.
# H9 cells [2] = assay: Combinatorial matrix screening for synergistic effects on cell survival; format: cell-based, human; conditions: 10×10 matrix, normalized to 10 μM Y-27632
# Protocol: Combinatorial matrix screening was performed to identify the compounds with synergistic effects on cell survival. Focusing on the compounds with different mechanisms of action, 29 compounds were selected for combinational matrix screening, resulting in 812 sets of 10×10 checkerboard matrix experiments (data not shown), four of which are illustrated in FIG. 9. The concentrations of the compounds for combinational matrix screening were optimized based on the slope and potency (AC50) derived from single-agent qHTS dose-response curves, so that the matrix screen covered a wide range of biological effect observed in the cell viability assay. […] The numerals in each 10×10 matrix show the maximum survival achieved with the indicated combinations or single agents. The maximum survival achieved by each pair of compounds is represented by the highest numbers in each 10×10 matrix, the examples of which are shown in FIG. 9. The bottom matrices depict the synergy matrix calculated using highest-single agent (HSA) model. The HSA synergy assesses the pro-survival benefit of compound combination compared to single agent alone, which was computed as the difference between cell survival out of combination and that from the best single agent at each tested concentration. Synergy is defined as the difference between the combination and max response with single agent (synergy=combination max (single agent A, single agent B).
# H9 cells [3] = assay: Long-term passaging of H9 cells (40 passages); format: cell-based, human; conditions: 24 hours treatment at every passage
# H9 cells [4] = assay: Embryoid body formation assays; conditions: AggreWell plates, 24 hours after seeding
# Protocol: In one series of experiments, H9 cells were dissociated with Accutase. […] Embryoid body (EB) formation was examined 24 hours after cell seeding.
# In a different experimental approach (data not shown), a defined number of H9 cells was plated into AggreWell™ plates (StemCell Technologies, Vancouver, Canada) to generate single EBs per well. Embryoid body (EB) formation was examined 24 hours after cell seeding.
# Pluripotent stem cells (WA09, also called H9 cells, obtained from WiCell, Madison, Wis.) dissociated with Accutase were seeded into AggreWell™ plates (StemCell Technologies, Vancouver, Canada) to generate EBs. Bright field images were taken 24 hours after seeding.
# H9 cells dissociated with Accutase were seeded into 96-well plates (ultra-low attachment) to generated EBs. After 24 hours, calcein (green staining, live cells) and PI (red staining, dead cells) were added to the cell culture medium to visualize live and dead cells in the wells.
# H9 cells [5] = assay: Survival and attachment of single-cell dissociated cells (CellTiter-Glo, time-lapse imaging); format: cell-based, human; conditions: 50 nM Chroman 1, 5 μM Emricasan; vitronectin-coated plates, over 24 hours
# Protocol: CellTiter-Glo® assay was used to quantify viable […] cells 24 hours post-plating (100,000 cells/[…]). […] Cellular stress was already apparent 20 minutes after plating in the presence of Emricasan, which ultimately led to dead cells at 24 hours.
# H9 cells [6] = assay: Dose-response curves of selected ROCK inhibitors, cell survival (CTG); format: cell-based, human; conditions: four replicates, normalized to CTG reading at 10 μM Y-27632
# Source text: Molar concentrations of the selected ROCK inhibitors are plotted on the X-axis (log scale). […] Thusly normalized data were plotted on the Y-axis.
# human kinases = assay: Kinase profiling, HotSpot Kinase Assay; format: biochemical; conditions: Y-27632 at 10 μM, Chroman 1 at 50 nM; for specificity / off-target inhibition: under 10% of original activity deemed significant
# Source text: The results of kinase profiling experiments are illustrated in FIG. 8. […] The phylogenic trees of human kinases were generated based on a neighbor-joining tree via ClustalW software derived from multiple protein sequence alignment of human kinase domains (Manning et al., “The protein kinase complement of the human genome” Science 298:1912-1934 (2002)).
# H9 cells [7] = assay: Cell survival after routine passage (caspase 3/7 imaging, CTG); format: cell-based, human; conditions: 100,000 cells per cm^2; 10 μM Y-27632, 50 nM Chroman 1, 5 μM Emricasan
# ROCK1 = biological target: T1, ROCK1 (Homo sapiens, UniProt Q13464); assay: HotSpot Kinase Assay (Reaction Biology) ROCK1; format: biochemical
# T1 construct: purchased Reaction Biology Corporation (Malvern, Pa.)
# OCT4 expressing cells = assay: Microscopy of stress mechanisms during cell passaging; format: cell-based; conditions: 3 hours post-plating
# Protocol: The scale bars shown are 10 μm. Upper panel illustrates confocal microscopic analysis of the lamin B1-GFP iPSC reporter line (Allen Insitute for Cell Science, Seattle, Wash.) displaying dramatic morphological differences in nuclear shape during cell passaging (30 min after plating). […] Lower panel illustrates dramatic cytoskeletal differences during cell passaging (3 hours post-plating), as measured by immunocytochemistry against actin and myosin.
# H9 cells [8] = assay: Propidium iodide dead cell count of dissociated H9 cells; format: cell-based, human; conditions: 10 μM Y-27632 vs 50 nM Chroman 1; 12 hours after plating; EDTA or Accutase dissociation
# Protocol: H9 cells were dissociated with 0.5 mM ethylenediaminetetraacetic acid (EDTA) or Accutase (enzymatic dissociation) according to standard procedures and seeded into vitronectin coated 6-well plates. Phase-contrast and fluorescence microscopy digital images were taken 12 hours after cell plating (data not shown). To generate the fluorescence microscopy images, live cells were stained with Calcein (0.5 μg/ML; Thermo Fisher Scientific, catalog number: C34852), and dead cells were stained with propidium iodide (PI; 500 nM; Thermo Fisher Scientific, catalog number: P3566). For quantitative analysis, the cells were counted using an automated cell counter (Cellometer Auto 2000, Nexcelom). The results of PI staining are illustrated in the bar graph shown in the right panel of FIG. 5.
# hESCs (H9) = assay: Western blot of hESCs after passaging; format: cell-based, human; conditions: 3 hours post-passage
# Source text: GAPDH was used as a loading control and house-keeping protein control.
# Higher observed levels of phosphorylated CHK2 on threonine 68 indicated cell cycle arrest.
# [9] = H9 cell survival normalized to 10 μM Y-27632 (taken to be 100%)
# [10] = H9 cell survival, normalized to 10 μM Y-27632
# [11] = Homo sapiens, H9, 24 h, H9 cell survival normalized to 10 μM Y-27632 (taken to be 100%), read-out: Max (maximum activity value from all tested concentrations)
# [12] = Homo sapiens, H9, 24 h, H9 cell survival
# [13] = Homo sapiens, H9, 24 h, H9 cell survival, normalized to 10 μM Y-27632, read-out: Efficacy (activity range between predicted activities at zero and infinite doses, Hill equation)
# T1 sequence (Q13464 whole entry): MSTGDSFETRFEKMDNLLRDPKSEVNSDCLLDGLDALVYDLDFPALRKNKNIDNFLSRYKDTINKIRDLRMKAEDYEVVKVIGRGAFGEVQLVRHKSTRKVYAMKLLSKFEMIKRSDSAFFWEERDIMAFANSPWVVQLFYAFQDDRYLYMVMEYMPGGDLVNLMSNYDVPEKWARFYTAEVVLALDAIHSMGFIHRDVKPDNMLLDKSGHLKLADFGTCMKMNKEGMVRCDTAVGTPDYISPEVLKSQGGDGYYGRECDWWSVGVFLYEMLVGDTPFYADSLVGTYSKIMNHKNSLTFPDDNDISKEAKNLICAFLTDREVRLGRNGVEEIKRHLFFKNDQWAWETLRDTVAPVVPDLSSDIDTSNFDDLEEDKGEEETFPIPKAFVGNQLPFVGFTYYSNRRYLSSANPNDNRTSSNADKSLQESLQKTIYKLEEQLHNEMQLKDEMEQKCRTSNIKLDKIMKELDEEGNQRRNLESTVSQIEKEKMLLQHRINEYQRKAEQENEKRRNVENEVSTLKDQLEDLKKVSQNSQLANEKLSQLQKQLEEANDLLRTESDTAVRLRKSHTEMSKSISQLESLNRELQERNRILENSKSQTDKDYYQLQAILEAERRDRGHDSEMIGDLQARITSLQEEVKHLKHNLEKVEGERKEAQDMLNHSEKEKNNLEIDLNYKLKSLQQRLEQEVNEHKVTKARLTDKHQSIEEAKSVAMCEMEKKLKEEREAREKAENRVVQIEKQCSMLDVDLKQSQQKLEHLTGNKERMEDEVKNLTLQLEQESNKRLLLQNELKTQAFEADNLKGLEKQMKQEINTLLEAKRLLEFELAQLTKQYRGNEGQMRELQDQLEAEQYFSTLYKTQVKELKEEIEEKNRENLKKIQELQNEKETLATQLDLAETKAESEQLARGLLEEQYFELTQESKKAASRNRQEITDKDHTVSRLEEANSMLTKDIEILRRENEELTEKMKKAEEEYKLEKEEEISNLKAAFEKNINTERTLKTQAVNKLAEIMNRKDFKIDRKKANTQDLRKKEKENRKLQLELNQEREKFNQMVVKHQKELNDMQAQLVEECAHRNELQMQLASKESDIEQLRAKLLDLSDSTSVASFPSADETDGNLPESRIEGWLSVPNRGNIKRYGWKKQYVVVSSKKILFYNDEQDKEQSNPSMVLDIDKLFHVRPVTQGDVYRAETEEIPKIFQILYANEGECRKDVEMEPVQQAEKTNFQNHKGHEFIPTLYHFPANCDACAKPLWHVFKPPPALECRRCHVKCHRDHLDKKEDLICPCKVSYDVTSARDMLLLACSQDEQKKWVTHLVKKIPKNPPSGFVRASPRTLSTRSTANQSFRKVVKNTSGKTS
compound,measurement,setting,value
"Cc1ccc2c(c1)C(=O)C1(O)CCN(c3ccccc3)C1=N2 (single isomer, unassigned; (-)) [(−)-Blebbistatin]",Max (maximum activity value from all tested concentrations),H9 cells [1]; [9],90.71% and 107.8%
same,"Efficacy (activity range between predicted activities at zero and infinite doses, Hill equation)",H9 cells [1]; [10],105 and 96
same,synergy with Chroman 1 on cell survival (HSA model),H9 cells [2],lacking synergy
"COc1ccc2c(c1)C[C@H](C(=O)Nc1ccc(-c3cn[nH]c3)cc1OCCN(C)C)CO2 [Chroman 1, (3S)—N-{2-[2-(Dimethylamino)ethoxy]-4-(1H-pyrazol-4-yl)phenyl}-6-methoxy-3,4-dihydro-2H-1-benzopyran-3-carboxamide]",karyotype after long-term passaging,H9 cells [3],maintained a normal karyotype
same,single EB formation and dead cells,H9 cells [4],amount of dead cells was significantly lower
same,Emax,H9 cells [1]; [11],110%
same,AC50,H9 cells [1]; [12],290 nM
same,Emax,H9 cells [1]; [13],108%
same,cell attachment and survival in time-lapse imaging,H9 cells [5],cell attachment already 20 min after plating
same,potency in dose-response of cell survival,H9 cells [6],"more potent than to Y-27632, Thiazovivin or Fasudil"
same,primary targets,human kinases,ROCK1 and ROCK2
same,specificity / off-target inhibition,human kinases,higher specificity
same,cell survival after single-cell dissociation,H9 cells [7],further improved cell survival
same,IC50 against ROCK1 (comparison in words),ROCK1,more potent ROCK inhibitor than Y-27632
"C[C@H](NC(=O)C(=O)Nc1ccccc1C(C)(C)C)C(=O)N[C@@H](CC(=O)O)C(=O)COc1c(F)c(F)cc(F)c1F [Emricasan, 3-(2-(2-tert-butylphenylaminooxalyl)aminopropionylamino)-4-oxo-5-(2,3,5,6-tetrafluorophenoxy)pentanoic acid]",single EB formation and dead cells,H9 cells [4],did not result in proper cell aggregation and EB formation
same,Emax,"H9 cells [1]; Homo sapiens, H9, 24 h, read-out: Efficacy (activity range between predicted activities at zero and infinite doses, Hill equation)",95.8%
same,Emax,"H9 cells [1]; Homo sapiens, H9, 24 h, read-out: Max (maximum activity value from all tested concentrations)",76.4%
same,AC50,"H9 cells [1]; Homo sapiens, H9 cell survival",33200 nM
same,cell attachment and survival in time-lapse imaging,H9 cells [5],not sufficient to improve cell viability beyond 24 hours
same,synergy with Chroman 1 on cell survival (HSA model),H9 cells [2],synergistic with Chroman 1
CC(C)[C@H](NC(=O)c1ccc2ccccc2n1)C(=O)N[C@@H](CC(=O)O)C(=O)COc1c(F)cccc1F [Q-VD-OPh hydrate],Max (maximum activity value from all tested concentrations),H9 cells [1]; [9],93.54%
same,AC50,H9 cells [1]; H9 cell survival,1170 nM
same,"Efficacy (activity range between predicted activities at zero and infinite doses, Hill equation)",H9 cells [1]; [10],85.9
same,synergy with Chroman 1 on cell survival (HSA model),H9 cells [2],synergistic with Chroman 1
N#Cc1cc(F)cc(-c2nc(-c3ccccn3)no2)c1 [VU 0285683],Max (maximum activity value from all tested concentrations),H9 cells [1]; [9],21.28%
same,"Efficacy (activity range between predicted activities at zero and infinite doses, Hill equation)",H9 cells [1]; [10],0
O=C(Nc1ccc(-c2ccnc(Nc3ccc(N4CCOCC4)cc3)n2)cc1)[C@@H]1CCCN1 [XL-19],Max (maximum activity value from all tested concentrations),H9 cells [1]; [9],29.98%
same,AC50,H9 cells [1]; H9 cell survival,23300 nM
same,"Efficacy (activity range between predicted activities at zero and infinite doses, Hill equation)",H9 cells [1]; [10],35.5
C[C@@H](N)[C@H]1CC[C@H](C(=O)Nc2ccncc2)CC1 [Y-27632],"cytoskeleton (actin, myosin immunocytochemistry)",OCT4 expressing cells,form prominent actin stress fibers at the colony edge
same,γH2AX immunoreactivity,OCT4 expressing cells,immunoreactive for γH2AX
same,number of propidium iodide-positive dead cells,H9 cells [8],higher number of dead cells than Chroman 1 treatment
same,single EB formation and dead cells,H9 cells [4],Dead cells surrounded the EBs
same,Emax,H9 cells [1]; [11],95.5%
same,Emax,H9 cells [1]; [13],96.2%
same,primary targets,human kinases,ROCK1 and ROCK2
same,specificity / off-target inhibition,human kinases,"a number of off-targets, including PKCeta (also known as PKC η or PRKCH), PKCepsilon (also known as PKC ε or PRKCE), PKCdelta (also known as PKC δ or PRKCD), PKN1, PKN2 and PRKX"
same,cell survival after single-cell dissociation,H9 cells [7],beneficial
same,phosphorylated eIF2A at serine 51,hESCs (H9),High levels of p-eIF2A(S51)
same,"stress response markers (γH2AX, ATF4)",hESCs (H9),Strong stress response
C[C@@H](N)c1ccc(C(=O)Nc2ccnc3[nH]ccc23)cc1 [Y-39983],Emax,H9 cells [1]; [11],127%
same,Emax,H9 cells [1]; [13],121%
Cc1sc2c(c1C)C(c1ccc(Cl)cc1)=N[C@@H](CC(=O)NCCCCNC(=O)COc1cccc3c1C(=O)N(C1CCC(=O)NC1=O)C3=O)c1nnc(C)n1-2 (some centres unmarked) [dBETI],Max (maximum activity value from all tested concentrations),H9 cells [1]; [9],62.14%
same,AC50,H9 cells [1]; H9 cell survival,4 nM
same,"Efficacy (activity range between predicted activities at zero and infinite doses, Hill equation)",H9 cells [1]; [10],−67.9
C/C=C/C(=O)C(C)C1=CC(=O)C2=C(OC34CC[C@H](O)C(C)(C)[C@@H]3CC[C@H](C)C4(C)C2)C1=O (some centres unmarked) [podosporin A],Max (maximum activity value from all tested concentrations),H9 cells [1]; [9],26.17%
same,"Efficacy (activity range between predicted activities at zero and infinite doses, Hill equation)",H9 cells [1]; [10],0
c1ccc2c3c([nH]c2c1)CNCC3 [tryptoline],Emax,H9 cells [1]; [11],27.9%
same,AC50,H9 cells [1]; [12],0.9 nM
same,Emax,H9 cells [1]; [13],-33.1%
(−)-Indolactam V,Max (maximum activity value from all tested concentrations),H9 cells [1]; [9],51.21%
same,AC50,H9 cells [1]; H9 cell survival,833 nM
same,"Efficacy (activity range between predicted activities at zero and infinite doses, Hill equation)",H9 cells [1]; [10],45.5
